Source: patent publication US9233961B2, “Compounds and compositions for the treatment of parasitic diseases” (Novartis AG, priority 2013, dated 2016)
Read-outs that look alike come from different tables or passages of the source.

Tests used:
[1] = tested on: Trypanosoma brucei Lister 427 strain bloodstream form; test: Assay for proliferation of kinetoplastid parasite Trypanosoma brucei; type: cell-based; conditions: read-out: T. brucei EC50
Outline: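 Bloodstream-form T. brucei Lister 427 in HMI-9 medium was exposed to compound (DMSO vehicle) for 48 hours at 37° C, 5% CO2. Parasite growth was read as ATP by CellTiter-Glo luminescence, with EC50 calculated from percent inhibition.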

[2] = tested on: L. donovani HU3 strain in mouse peritoneal macrophages; test: Assay for proliferation of Leishmania parasites in mouse peritoneal macrophages; type: cell-based, Leishmania donovani
Outline: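 EC50 derives from counting SYBR Green-stained parasite nuclei by high-content imaging after 5 days' compound exposure. Host cells were uninfected BALB/c peritoneal macrophages, infected for 24 h before dosing with spleen-derived L. donovani HU3 parasites from mice infected 9–11 weeks.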

[3] = tested on: Leishmania donovani axenic amastigote parasites; test: Leishmania donovani axenic amastigote proliferation assay; type: cell-based; conditions: read-out: L. donovani amastigotes EC50
Outline: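 EC50 values come from CellTiter-Glo luminescence after 2-day compound exposure of axenic amastigotes (9600 per well) at 37 °C, 5% CO2. Medium: RPMI 1640, 20% heat-inactivated FBS, folic acid, adenosine, D-glucose, 25 mM MES, adjusted to pH 5.5.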

[4] = tested on: Trypanosoma cruzi amastigotes (Tulahuen strain) cultured in 3T3 fibroblast cells; test: Assay for proliferation of kinetoplastid parasite Trypanosoma cruzi; type: cell-based; conditions: 144 h
Description: Assay for Proliferation of Kinetoplastid Parasite Trypanosoma cruzi.
Compounds of the invention can be assayed to measure their capacity to inhibit proliferation of kinetoplastid parasite Trypanosoma cruzi. The screening procedure is for identifying compounds with inhibitor activity against Trypanosoma cruzi amastigotes cultured in 3T3 fibroblast cells. The assay is done using the mammalian stage (amastigotes) of T. cruzi that replicates in the intracellular space of host cells. The host cells are initially infected with the culture-derived trypomastigotes that rapidly invade and then divide as amastigotes. The protocol uses the Tulahuen strain of T. cruzi that has been engineered to express the E. coli beta-galactosidase gene (Lac-Z) (Antimicr. Agents Chemoth. 40:2592, 1996). This allows for a colorimetric readout by using the substrate CPRG and an absorbance plate reader.
3T3 fibroblast cells are re-suspended in RPMI-1640 medium without phenol red medium supplemented with 10% FBS (heat inactivated), 100 μg/ml penicillin, and 100 μg/ml streptomycin. Forty μL of suspension (1,000 cells) is dispensed into 384-well plates and incubated overnight at 37° C. temperature and in atmosphere containing 5% CO2. The following day, 100 nL of compounds of the invention in DMSO are added to plate wells containing 3T3 cells. At the same time control compounds (benznidazole and nifurtimox) and DMSO are added to plates to serve as the positive and negative controls, respectively. After that, 10 μL of media containing 10,000 T. cruzi trypomastigotes are added to each plate well and plates are placed back into incubators. After 6 day incubation, 10 μL of reagent solution (0.6 mM CPRG, 0.6% NP-40 in PBS) is added to plates and incubated at room temperature for 2 hours. Absorbance is then measured on SpectraMax Gemini […] to determine relative number of T. cruzi cells present in each plate well. The percentage inhibition of 50%, EC50, is calculated for each compound. […] Typically, the EC50 is 10 μM or less.

[5] = patients injected; cited from earlier work
[6] = Lister 427 bloodstream form, 48 hours
[7] = Leishmania donovani, Peritoneal macrophage, read-out: L. donavani Macrophage EC50
[8] = Tulahuen amastigotes in 3T3 fibroblast cells, 6 day incubation, read-out: T cruzi EC50
[9] = Leishmania donovani, Peritoneal macrophage, 120 h, L. donovani in mouse peritoneal macrophages, 5 days culture, SybrGreen parasite nuclei count, read-out: EC50
[10] = TULAHUEN, Fibroblast, read-out: T cruzi EC50

Compound | EC50 [1, 6] | EC50 [2, 7] | EC50 ([3]; axenic amastigotes in vitro) | EC50 [4, 8] | other results
CCN(C)C(=O)Nc1ccc(Cl)c(-c2nc3ncc(C)cc3[nH]2)c1 [Compound 242] | 360 nM | 25500 nM | 4300 nM | 1380 nM | –
Cc1cnc2nc(-c3cc(NC(=O)N(C)C)ccc3Cl)[nH]c2c1 [Compound 243] | 450 nM | 39600 nM | 5000 nM | 2580 nM | –
Cc1cnc2nc(-c3cc(NC(=O)N4CCN(C)CC4)ccc3Cl)[nH]c2c1 [Compound 244] | > 25000 nM | > 50000 nM | > 25000 nM | > 20000 nM | –
Cc1ccc(C(=O)Nc2ccc(Cl)c(-c3nc4ncc(C(F)(F)F)cc4[nH]3)c2)o1 [Compound 279] | 311 nM | 2250 nM | 570 nM | 141 nM | –
O=C(Cc1cccc(Cl)c1)Nc1ccc(Cl)c(-c2nc3ncc(C(F)(F)F)cc3[nH]2)c1 [Compound 280] | > 13600 nM | 27400 nM | 21200 nM | 3400 nM | –
CS(=O)(=O)c1ccc(-c2cnc3nc(-c4cc(NC(=O)N5CCCC5)ccc4Cl)[nH]c3c2)cc1 [Compound 297] | 187 nM | 5500 nM | 1590 nM | 5300 nM | –
CN(C(=O)OC(C)(C)C)c1ccc(-c2cnc3nc(-c4cc(NC(=O)N5CCCC5)ccc4Cl)[nH]c3c2)cc1 [Compound 308, tert-butyl N-[4-(2-{2-chloro-5-[(pyrrolidin-1-yl)carbonylamino]phenyl}-1H-imidazo[4,5-b]pyridin-6-yl)phenyl]-N-methylcarbamate] | 25 nM | 85 nM | 114 nM | 23 nM | EC50 [2, 9]: ~80 nM
CNc1ccc(-c2cnc3nc(-c4cc(NC(=O)c5cnccn5)ccc4Cl)[nH]c3c2)cc1 [Compound 348] | 23.9 nM | 920 nM | 249 nM | 64 nM | –
CCOC(=O)Nc1ccc(Cl)c(-c2nc3ncc(-c4ccc(NC)cc4)cc3[nH]2)c1 [Compound 351] | 206 nM | 3700 nM | 1190 nM | 243 nM | –
COCCOC(=O)Nc1ccc(Cl)c(-c2nc3ncc(Br)cc3[nH]2)c1 [Compound 371] | 2210 nM | 6500 nM | 2350 nM | 3300 nM | –
O=C(Nc1ccc(Cl)c(-c2nc3ncc(Br)cc3[nH]2)c1)C1CCCC1 [Compound 374] | 5100 nM | 5900 nM | 16500 nM | 850 nM | –
O=C(Nc1ccc(Cl)c(-c2nc3ncc(Br)cc3[nH]2)c1)c1cnccn1 [Compound 375] | 2350 nM | > 42700 nM | 7500 nM | 3900 nM | –
O=C1Cc2cc(-c3cnc4nc(-c5cc(NC(=O)C6CCCC6)ccc5Cl)[nH]c4c3)ccc2N1 [Compound 377] | 580 nM | 5800 nM | 6600 nM | 2060 nM | –
COCCOC(=O)Nc1ccc(Cl)c(-c2nc3ncc(-c4ccc5c(c4)CC(=O)N5)cc3[nH]2)c1 [Compound 379] | 690 nM | 8700 nM | 1490 nM | 13200 nM | –
Cc1cnc2nc(-c3cc(NC(=O)NCCN(C)C)ccc3Cl)[nH]c2c1 [Example 226, 1-(4-Chloro-3-{6-methyl-1H-imidazo[4,5-b]pyridin-2-yl}phenyl)-3-[2-(dimethylamino)ethyl]urea] | – | > 50000 nM | – | – | EC50 ([1]; 48 h): > 22200 nM; EC50 [3]: > 25000 nM; EC50 [4, 10]: > 20000 nM
O=C(Nc1ccc(Cl)c(-c2nc3ncc(-c4ccccc4)cc3[nH]2)c1)N1CCCC1 [Example 291, N-(4-chloro-3-{6-phenyl-1H-imidazo[4,5-b]pyridin-2-yl}phenyl)pyrrolidine-1-carboxamide] | 15.2 nM | – | 76 nM | – | EC50 ([2]; L. donovani in mouse peritoneal macrophages, 5 days culture, SybrGreen parasite nuclei count, read-out: EC50): ~80 nM; EC50 [2, 9]: 76 nM; EC50 ([4]; TULAHUEN, Fibroblast): 16 nM; EC50 [4, 10]: 16.1 nM
CNc1ccc(-c2cnc3nc(-c4cc(NC(=O)OCCOC)ccc4Cl)[nH]c3c2)cc1 [Example 350, 2-Methoxyethyl N-(4-chloro-3-{6-[4-(methylamino)phenyl]-1H-imidazo[4,5-b]pyridin-2-yl}phenyl)carbamate] | – | 1260 nM | – | – | EC50 ([1]; 48 h): 800 nM; EC50 [3]: 680 nM; EC50 [4, 10]: 510 nM
CCOC(=O)Nc1ccc(Cl)c(-c2nc3ncc(Br)cc3[nH]2)c1 [Example 370, Ethyl N-(3-{6-bromo-1H-imidazo[4,5-b]pyridin-2-yl}-4-chlorophenyl)carbamate] | – | 7400 nM | – | – | EC50 ([1]; 48 h): 520 nM; EC50 [3]: 2530 nM; EC50 [4, 10]: 1200 nM
Nc1nc(N)nc(Nc2ccc([As]3SCC(CO)S3)cc2)n1 (centres unmarked) [Melarsoprol] | – | – | – | – | patients who developed reactive encephalopathy (convulsions, progressive coma, or psychotic reactions) [5]: 3-10%; reactive encephalopathy cases that result in death [5]: 10-70%
